Data as given in EPA's ToxValDB 9.5.

How the values were obtained:
Rattus norvegicus = settings: oral, gavage
Mus musculus = settings: oral
[1] = chronic, duration: 93 days, F, Endocrine: Thyroid follicular epithelial hypertrophy
[2] = chronic, duration: 93 days, M/F, Hematological: Decreased RBC, hemoglobin, and hematocrit / increased reticulocytes / erythroid hypertrophy in bone marrow and …
[3] = chronic, duration: 93 days, M/F, Respiratory: Degeneration/atrophy of nasal olfactory epithelium at ?100 mg/kg/day and respiratory metaplasia at 500 mg/kg/day
[4] = chronic, duration: 93 days, M, Body Weight: 19% decrease in body weight gain
[5] = developmental, duration: 20 days, F, Body Weight: Decreased maternal weight gain (19%) + Developmental: Decreased fetal weight (10%)
[6] = developmental, duration: 126 days, M/F, Developmental: Decreased pup body weight (17-18%) during lactation period
[7] = reproduction developmental, duration: 126 days, M, Body Weight: Decreased weight gain (12%) / decreased maternal weight gain during GDs 0-7 and increased maternal weight gain during …
[8] = subchronic, duration: 44 days, F, Immunotoxicological: Thymic atrophy in 3/9 females
[9] = subchronic, duration: 44 days, M, Hematological: Decreased hemoglobin levels / increased reticulocytes at 315 mg/kg/day
[10] = subchronic, duration: 90 days, M/F, Sprague-Dawley, Hematological: Slight decreases in RBC, hemoglobin, and hematocrit and increases in reticulocytes
[11] = developmental, duration: 13 days, gavage, F, CD1, Developmental: 12.5% decrease in birth weight and delayed eye opening at ?350 mg/kg/day / increased pup mortality (PND 0-3) and decreased …
[12] = developmental, duration: 13 days, gavage, F, CD1, Developmental: Increase in stillborn pups and 12.5% decrease in birth weight
[13] = developmental, duration: 15 days, F, Body Weight: 12% decrease in maternal body weight + Developmental: 12-13% decrease in fetal body weights
[14] = developmental, duration: 15 days, F, Body Weight: 31% decrease in maternal body weight gain + Developmental: Decreases in fetal body weight (9%) and delays in hindlimb …
[15] = reproduction developmental, duration: 70 days, Sprague-Dawley, Body Weight: Medullary/papillary tubular and ductal hyperplasia in P0 and F1
[16] = subchronic, duration: 90 days, M, Sprague-Dawley, Hematological: Decreased hemoglobin (4.9%) and hematocrit (5.2%)
[17] = subchronic, duration: 90 days, Sprague-Dawley, Gastrointestinal: Necrosis of individual squamous cells in forestomach and hyperplasia and hyperkeratosis of limiting ridge + Renal: …
[18] = developmental, duration: 20 days, gavage, F, ICR, Developmental: Decreases in pup body weight / delays in eye opening, vaginal opening, and first estrous / decreases in ovarian follicles…

O=C(O)C(F)(F)C(F)(F)C(F)(F)C(F)(F)C(F)(F)F [Perfluorohexanoic acid]
LOAEL (Rattus norvegicus; acute, duration: 1 days, F, Sprague-Dawley, Death: 1/4 died at […] / 3/3 died at 5,000 mg/kg/day): 1750 mg/kg-day
LOAEL (Rattus norvegicus; acute, duration: 1 days, F, Sprague-Dawley, Neurological: Abnormal gait, salivation, ataxia, lethargy): 175 mg/kg-day
LOAEL (Rattus norvegicus; chronic, duration: 104 weeks, F, Sprague-Dawley, Death: 36, 43, 33, and 22% survival rate in females at 0, 5, 30, and 200 mg/kg/day, respectivel): 200 mg/kg-day
LOAEL (Rattus norvegicus; chronic, duration: 104 weeks, F, Sprague-Dawley, Hematological: 8.1% reduction in mean RBC count and 5.2% reduction in hemoglobin at 51 weeks / 23.6 and 53.6% increase in reticulocyte …): 200 mg/kg-day
NOAEL (Rattus norvegicus; chronic, duration: 104 weeks, M, Sprague-Dawley, Hematological: 8.1% reduction in mean RBC count and 5.2% reduction in hemoglobin at 51 weeks / 23.6 and 53.6% increase in reticulocyte …): 100 mg/kg-day
LOAEL (Rattus norvegicus; [1]): 500 mg/kg-day
NOAEL (Rattus norvegicus; [1]): 100 mg/kg-day
LOAEL (Rattus norvegicus; [2]): 500 mg/kg-day
NOAEL (Rattus norvegicus; [2]): 100 mg/kg-day
NOAEL (Rattus norvegicus; chronic, duration: 93 days, M/F, Hepatic: Hepatocellular hypertrophy in males at ?100 mg/kg/day and females at 500 mg/kg/day): 500 mg/kg-day
LOAEL (Rattus norvegicus; [3]): 100 mg/kg-day
NOAEL (Rattus norvegicus; [3]): 20 mg/kg-day
LOAEL (Rattus norvegicus; [4]): 500 mg/kg-day
NOAEL (Rattus norvegicus; [4]): 200 mg/kg-day
LOAEL (Rattus norvegicus; chronic, duration: 126 days, F): 500 mg/kg-day
NOAEL (Rattus norvegicus; chronic, duration: 126 days, F): 100 mg/kg-day
NOAEL (Rattus norvegicus; chronic, duration: 126 days, M/F): 500 mg/kg-day
LOAEL (Rattus norvegicus; [5]): 500 mg/kg-day
NOAEL (Rattus norvegicus; [5]): 100 mg/kg-day
LOAEL (Rattus norvegicus; [6]): 500 mg/kg-day
NOAEL (Rattus norvegicus; [6]): 100 mg/kg-day
NOAEL (Rattus norvegicus; reproduction developmental, duration: 44 days, M/F, Gastrointestinal: Stomach erosions/ulceration in dying or sacrificed in extremis rats administered 450 mg/kg/day for 4 days + Hepatic: …): 315 mg/kg-day
LOAEL (Rattus norvegicus; [7]): 100 mg/kg-day
NOAEL (Rattus norvegicus; [7]): 20 mg/kg-day
NOAEL (Rattus norvegicus; subchronic, duration: 44 days, F): 315 mg/kg-day
LOAEL (Rattus norvegicus; [8]): 315 mg/kg-day
NOAEL (Rattus norvegicus; [8]): 150 mg/kg-day
NOAEL (Rattus norvegicus; subchronic, duration: 44 days, M): 315 mg/kg-day
LOAEL (Rattus norvegicus; subchronic, duration: 44 days, M/F, Death: 8/30 deaths (includes rats sacrificed in extremis) during first 4 days of exposure): 450 mg/kg-day
LOAEL (Rattus norvegicus; [9]): 150 mg/kg-day
NOAEL (Rattus norvegicus; [9]): 50 mg/kg-day
LOAEL (Rattus norvegicus; [10]): 200 mg/kg-day
NOAEL (Rattus norvegicus; [10]): 50 mg/kg-day
NOAEL (Rattus norvegicus; subchronic, duration: 90 days, M/F, Sprague-Dawley, Hepatic: Centrilobular hepatocellular hypertrophy at 200 mg/kg/day): 200 mg/kg-day
LOAEL (Mus musculus; [11]): 350 mg/kg-day
NOAEL (Mus musculus; [11]): 100 mg/kg-day
LOAEL (Mus musculus; [12]): 175 mg/kg-day
NOAEL (Mus musculus; [12]): 35 mg/kg-day

O=S(=O)(O)C(F)(F)C(F)(F)C(F)(F)C(F)(F)F [Perfluorobutanesulfonic acid]
LOAEL (Rattus norvegicus; [13]): 2000 mg/kg-day
NOAEL (Rattus norvegicus; [13]): 1000 mg/kg-day
LOAEL (Rattus norvegicus; [14]): 1000 mg/kg-day
NOAEL (Rattus norvegicus; [14]): 300 mg/kg-day
NOAEL (Rattus norvegicus; reproduction developmental, duration: 70 days, Sprague-Dawley, Body Weight: Increased liver weight in males at ?300 mg/kg/day): 1000 mg/kg-day
LOAEL (Rattus norvegicus; [15]): 300 mg/kg-day
NOAEL (Rattus norvegicus; [15]): 100 mg/kg-day
NOAEL (Rattus norvegicus; short-term, duration: 28 days, Sprague-Dawley, Hepatic: Increased absolute and relative liver weight at 900 mg/kg/day + Immunotoxicological: No histological alterations + Neurological: No…): 900 mg/kg-day
LOAEL (Rattus norvegicus; [16]): 200 mg/kg-day
NOAEL (Rattus norvegicus; [16]): 60 mg/kg-day
NOAEL (Rattus norvegicus; subchronic, duration: 90 days, Sprague-Dawley): 600 mg/kg-day
LOAEL (Rattus norvegicus; [17]): 600 mg/kg-day
NOAEL (Rattus norvegicus; [17]): 200 mg/kg-day
NOAEL (Mus musculus; developmental, duration: 20 days, gavage, F, ICR): 500 mg/kg-day
LOAEL (Mus musculus; [18]): 200 mg/kg-day
NOAEL (Mus musculus; [18]): 50 mg/kg-day
NOAEL (Mus musculus; subchronic, duration: 6 weeks, diet, M, Hepatic: Decreased plasma triglyceride levels): 30 mg/kg-day
